Experiments:
3×Tg-AD mice [1] = assay: Morris water maze test in aged triple transgenic Alzheimer's disease mouse model; type: in vivo; details: 2 mg/kg intraperitoneal once weekly for 3 months
Description: (§1) The neuroprotective effects of RRx-001 administration on Alzheimer's Disease (AD), which has been linked to aberrant NLR family pyrin domain containing 3 (NLRP3) activation, were evaluated via intraperitoneal injection once weekly for 3 months on aged (18-21 months old) homozygous triple transgenic AD mouse model (3×Tg-AD, Jackson Labs). 3×Tg mice received either 2 mg/kg RRx-001 (n=3) or vehicle (n=3), and were evaluated against control non-transgenic mice (NonTg, Jackson Labs) that were untreated (n=3).
Five days after the last treatment, the mice were tested using a Morris water maze test. The next week, the mice were exposed to an elevated maze test. The latency to reach the exact hidden platform location on the Morris water maze test (FIG. 1A) and the number of crossings of the platform target quadrant (FIG. 1B) were recorded.

[2] = test system: bone marrow derived macrophages (BMDMs); assay: DSS-primed bone marrow derived macrophages: IL-1β release; type: cell-based; details: BMDMs primed with DSS, 0.5 μM or 1.0 μM RRx-001
Description: FIG. 5 depicts IL-1β release from the four groups of bone marrow derived macrophages (BMDMs): (i) control (not primed with DSS). (ii) DSS+vehicle (primed with DS but not treated with RRx-001), (iii) DSS+RRx-001 (0.5 μM; primed with DSS and treated with 0.5 μM RRx-001), and (iv) DSS+RRx-001 (1.0 μM; primed with DSS and treated with 1.0 μM RRx-001).

3×Tg-AD mice [3] = assay: Oxidative stress markers and amyloid plaque density in aged 3×Tg-AD mice; type: in vivo, mouse; details: 2 mg/kg intraperitoneal once weekly for 3 months
Description: as §1

[4] = test system: bone marrow derived macrophages (BMDMs); assay: LPS-primed bone marrow derived macrophages: cytokine expression, IL-1β release, cytosolic Ca2+; type: cell-based; details: BMDMs primed with LPS 50 ng/mL for 30 minutes, then 0.5 μM RRx-001 for 4 hours
Description: Bone marrow derived macrophages (BMDMs) were primed with LPS (50 ng/mL) for 30 minutes before being treated with RRx-001 (0.5 μM) for 4 hours. FIG. 4A depicts the expression levels of IFN-γ, IL-12, TNF-α, and IL-1β from the three groups: (i) control (not primed with LPS), (ii) LPS+vehicle (primed with LPS but not treated with RRx-001), (iii) and LPS+RRx-001 (primed with LPS and treated with RRx-001). FIG. 4B depicts IL-1β release over time from the three groups. FIG. 4C depicts cytosolic Ca^2+ levels over time for the three groups.

C57BL/6 mice = assay: Dextran sulfate sodium (DSS) induced colitis in mice; type: in vivo, mouse; details: 2% or 4% DSS for 9 days, 5 or 10 mg/kg
Text: Colitis was induced in C57BL/6 mice with 2% or 4% dextran sulfate sodium (DSS; 40 kDa) dissolved in drinking water given ad libitum for 9 days. Control mice were given filtered water. FIG. 6A depicts changes in mice body weight over a 9-day period for each of the three groups: (i) control (filtered water), (ii) 2% DSS, and (iii) 4% DSS. FIG. 6B depicts colon length of mice in each group after the 9-day period.
FIGS. 7A and 7B depict changes in mice body weight over a 9-day period for each of the six groups: (i) 2% DSS+vehicle, (ii) 2% DSS+RRx-001 (5 mg/kg), and (iii) 2% DSS+RRx-001 (10 mg/kg) in FIG. 7A; and (iv) 4% DSS+vehicle, (v) 4% DSS+RRx-001 (5 mg/kg), and (vi) 4% DSS+RRx-001 (10 mg/kg) in FIG. 7B. While the 2% or 4% DSS was given ad libitum for 9 days as described above, vehicle, 5 mg/kg RRx-001, or 10 mg/kg RRx-001 was given as intravascular injections of pre-mixed blood formulations every other day during the 9-day period. […] FIGS. 7C and 7D depict colon length of mice in each of the six groups. […] FIGS. 7E and 7F depict serum IL-1β levels in mice in each of the six groups. […] FIGS. 7G and 7H depict colon homogenate IL-1β levels in mice in each of the six groups. FIGS. 7I and 7J depict colon homogenate IL-1β levels relative to the average IL-1β level of the control (i.e., DSS+vehicle) in mice in each of the six groups.
FIGS. 8A and 8B depict the changes in mice body weight over the 9-day period for each of the six groups: (i) 2% DSS+vehicle. (ii) 2% DSS+RRx-001 (5 mg/kg), and (iii) 2% DSS+RRx-001 (10 mg/kg) in FIG. 8A; and (iv) 4% DSS+vehicle, (v) 4% DSS+RRx-001 (5 mg/kg), and (vi) 4% DSS+RRx-001 (10 mg/kg) in FIG. 8B. While the 2% or 4% DSS was given ad libitum for 9 days as described above, vehicle, 5 mg/kg RRx-001, or 10 mg/kg RRx-001 was given as intraperitoneal injections every other day during the 9-day period. […] FIGS. 8C and 8D depict colon length of mice in each of the six groups. […] FIGS. 8E and 8F depict serum IL-1β levels in mice in each of the six groups. […] FIGS. 8G and 8H depict colon homogenate IL-1β levels in mice in each of the six groups.

[5] = intraperitoneal injections every other day
[6] = intravascular injections of pre-mixed blood formulations every other day

## O=C(CBr)N1CC([N+](=O)[O-])([N+](=O)[O-])C1 [RRx-001, 2-bromo-1-(3,3-dinitroazetidin-1-yl)ethanone]
3×Tg-AD mice [1]
  spatial learning tasks (trend in latency across trials): improvement
3×Tg-AD mice [1]; vs vehicle
  latency to locate the platform on the Morris water maze test: significantly reduce
[2]
  inflammatory effect of DSS (IL-1β release): significantly reduces
3×Tg-AD mice [3]
  amyloid plaque density: decrease
  lipid peroxidation (thiobarbituric acid-reactive substance (TBAR) levels): decrease
  reduced glutathione (GSH) compared to glutathione disulfide (GSSG): significant increase
[4]
  calcium accumulation in activated macrophages (cytosolic Ca2+ levels): prevents calcium accumulation
  inflammation-driven expression of certain cytokines such as IL-1β: significantly reduces
C57BL/6 mice; [5]
  DSS-induced expression of colon homogenate IL-1β: reduces
  DSS-induced expression of serum IL-1β: reduces
  body weight loss due to DSS induced colitis: significantly mitigates
  colon length reduction due to DSS induced colitis: mitigates
C57BL/6 mice; [6]
  DSS-induced expression of colon homogenate IL-1β: reduces
  DSS-induced expression of serum IL-1β: reduces
  body weight loss due to DSS induced colitis: significantly mitigates
  colon length reduction due to DSS induced colitis: mitigates

From US20240382451A1, “ORGANONITRO AND SULFOXYALKYL ORGANONITRO COMPOUNDS FOR USE IN TREATING MEDICAL DISORDERS” (EpicentRx, Inc., priority 2021, published 2024)
